# Measured values: patent US20230398106A1 (NEURORIVE INC, priority 2020, published 2023)
# Tested on: 5×FAD mouse
# Test: Morris water maze (MWM) task in 5×FAD mice
# Format: in vivo
# Method: A Morris water maze (MWM) task was conducted to examine an effect on improving cognitive function depending on the administration of the complex composition of the present invention. […] The above markers remained unchanged throughout the test period. The escape platform was placed 1 cm above the water surface or 0.5 to 1.5 cm below the water surface according to the purpose of the experiment. When placed under the water surface, the water was made opaque with white water-based paint so that the escape platform was not visible to the eye. The Morris water maze was divided into four quadrants, i.e., northeast (NE), northwest (NW), southeast (SE) and southwest (SW), wherein the escape platform was placed in the center of the southwest quadrant, and the mouse started randomly from one of the others.
# The escape platform was made visible on Learning DAY 0. Each mouse was trained to recognize that it was possible to escape when they swam toward the escape platform and landed thereon. On DAY 1-4, the escape platform was hidden by being placed under the water, and then the mice learned the position of the escape platform. […] The mice were then immediately transferred to the breeding cage. On DAY 5, the probe test was performed without the escape platform. The probe test was performed by placing the mouse in the farthest part of the quadrant where the escape platform was placed during the training day, and 60 seconds was set as the time limit. The indexes of cognitive function include the escape latency which is the time required for the mouse to find the escape platform and the time spent in the quadrant where the escape platform was placed. It was judged that the shorter the time it takes to escape (FIG. 2A) and the longer the mouse stays in the quadrant where the escape platform was placed (FIG. 2B), the better the memory and learning ability of the mouse.
# Then, each group was subjected to oral administration for 4 weeks to perform the experiment.
smiles,measurement,setting,value
"COc1cc2c(cc1OC)C(=O)C(CC1CCN(Cc3ccccc3)CC1)C2 (stereo not drawn) [Donepezil, donepezil]","escape latency reduced by, based on the mutant mouse vehicle group","2 mg/kg of donepezil alone, reduction stated in text",14.2%
same,Escape latency (Increase or decrease compared to mutated mouse vehicle group),"Mutated mouse, Donepezil 2 mg/kg oral, 4 weeks, DAY 4",−14.2%
same,time spent in the target quadrant (Increase or decrease compared to mutated mouse vehicle group),"Mutated mouse, donepezil 2 mg/kg oral, 4 weeks, probe test DAY 5",73.20%
